These results are taken from patent US20030170310A1, “Tasteless, directly compressible, fast-dissolving complexes and pharmaceutical formulations thereof” (priority 2002, published 2003).

This data set can be described thus: PH of drug and complex. The data set is classed as physicochemical.

In the case of `CC(C)(C(=O)O)c1ccc(C(O)CCCN2CCC(C(O)(c3ccccc3)c3ccccc3)CC2)cc1.Cl` (racemic) [Fexofenadine Hydrochloride, (±)-4-[1-hydroxy-4-[4-(hydroxydiphenylmethyl)-1-piperidinyl]-butyl]-α,α-dimethylbenzene acetic acid hydrochloride], the PH is recorded as 2.25-2.75.
